Patent US20250043299A1, “POINT MUTATIONS THAT BOOST AROMATIC AMINO ACID PRODUCTION AND CO2 ASSIMILATION IN PLANTS” (Wisconsin Alumni Research Foundation, priority 2021, published 2025)
Where two headings read alike, the source gives them in different places.

Assays:
DHS1^WT [1] = molecular target: T1, DHS1^WT (Arabidopsis thaliana, UniProt P29976); assay: DHS enzyme assay (colorimetric), recombinant DHS1^WT; type: biochemical; conditions: for effect on DHS1 activity (effector screening): FIG. 2D
T1 construct: without the predicted plastid transit peptide (amino acid residues; 49-525, 34-507, and 52-527, respectively); made in house; host or cells: E. coli Rosetta-2
T1 sequence (P29976 49-525): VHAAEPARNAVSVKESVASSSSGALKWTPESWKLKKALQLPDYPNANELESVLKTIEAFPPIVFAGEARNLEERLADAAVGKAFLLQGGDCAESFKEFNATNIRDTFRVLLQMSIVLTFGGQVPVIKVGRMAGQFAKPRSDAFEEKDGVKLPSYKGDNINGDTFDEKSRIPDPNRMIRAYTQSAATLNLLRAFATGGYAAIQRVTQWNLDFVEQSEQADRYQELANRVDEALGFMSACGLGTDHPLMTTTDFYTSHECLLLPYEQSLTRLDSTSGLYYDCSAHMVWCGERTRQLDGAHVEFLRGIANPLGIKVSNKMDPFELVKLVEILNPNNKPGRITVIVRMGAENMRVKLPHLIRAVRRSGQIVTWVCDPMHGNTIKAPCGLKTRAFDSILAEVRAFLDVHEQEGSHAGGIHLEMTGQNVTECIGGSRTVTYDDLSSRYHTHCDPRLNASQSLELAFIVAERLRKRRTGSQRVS
Protocol: (§1) To generate recombinant DHS proteins the pET28a vectors carrying the A. thaliana DHS1 (AtDHS1), AtDHS2, or AtDHS3 WT sequence without the predicted plastid transit peptide (amino acid residues; 49-525, 34-507, and 52-527, respectively) were expressed in E. coli Rosetta-2 cells and purified using Ni-affinity chromatography, exactly as was conducted previously (9). To generate DHS proteins with individual sota mutations via site-directed mutagenesis, these pET28a plasmid templates were diluted by 500-fold, mixed with 0.04 U/μL Phusion DNA polymerase (Thermo Scientific), 0.2 mM deoxynucleoside triphosphates (dNTPs), 1× Phusion reaction buffer (Thermo Scientific), and 0.5 μM forward and reverse mutagenesis primers (Table 10). The PCR reaction was run using the following protocol: 98° C. for 30 s followed by 20 cycles of 10 s at 98° C., 20 s at 70° C., 4.5 min at 72° C. with a final extension at 72° C. for 10 min. The PCR products were purified using a QIAquick Gel Extraction Kit (QIAGEN), treated with FastDigest DpnI (Thermo Scientific) to digest methylated plasmid template DNA for 20 min at 37° C., and transformed into E. coli cells. The mutagenized pET28a plasmids were sequenced to confirm that no errors were introduced during the mutagenesis process.
(§2) The DHS enzyme assays were conducted using the colorimetric method that we recently described (9). Briefly, the enzyme solution (7.7 μl) containing 50 mM Hepes (pH 7.4) was preincubated with an effector molecule(s) at room temperature for 15 min. For assays using recombinant protein and enzyme fractions isolated from plant leaves, 0.01 to 0.1 μg and approximately 50 μg of proteins were used, respectively. After adding 0.5 μl of 0.1 M dithiothreitol, the samples were further incubated at room temperature for 15 min. During these incubations, the substrate solution containing 50 mM Hepes (pH 7.4), 2 mM MnCl2, 4 mM E4P, and 4 mM PEP at final concentration was preheated at 37° C. The enzyme reaction was started by adding 6.8 μl of the substrate solution, then incubated at 37° C. for 30 min, and terminated by adding 30 μl of 0.6 M trichloroacetic acid. After a brief centrifugation, 5 μl of 200 mM NaIO4 (sodium meta-periodate) in 9 N H3PO4 was added to oxidize the enzymatic product and to incubate at 25° C. for 20 min. To stop the oxidation reaction, 20 μl of 0.75 M NaAsO2 (sodium arsenite), which was dissolved in 0.5 M Na2SO4 and 0.05 M H2SO4, was added and immediately mixed. After 5 min of incubation at room temperature, one-third of the sample solution was transferred to a new tube to be mixed with 50 μl of 40 mM thiobarbituric acid and incubated at 99° C. for 15 min in a thermal cycler. The mixture was added to 600 μl of cyclohexanone in eight-strip solvent-resistant plastic tubes, mixed vigorously, and centrifuged at 4500 g for 3 min to separate water- and cyclohexanone-based layers for the extraction off the developed pink chromophore. The absorbance of the pink supernatant was read at 549 nm with the microplate reader (Infinite 200 PRO, TECAN) to calculate DAHP production with the molar extinction coefficient at 549 nm (ε=549 nm) of 4.5×10^4 M^−1 cm^−1. Reaction mixtures with boiled enzymes were run in parallel and used as negative controls to estimate the background signal.

DHS1^B4 = molecular target: T2, DHS1^B4 (Arabidopsis thaliana, UniProt P29976, G244R); assay: DHS enzyme assay, recombinant DHS1^B4; type: biochemical
T2 construct: without the predicted plastid transit peptide (amino acid residues; 49-525, 34-507, and 52-527, respectively); made in house; host or cells: E. coli
T2 sequence (P29976 49-525 G244R): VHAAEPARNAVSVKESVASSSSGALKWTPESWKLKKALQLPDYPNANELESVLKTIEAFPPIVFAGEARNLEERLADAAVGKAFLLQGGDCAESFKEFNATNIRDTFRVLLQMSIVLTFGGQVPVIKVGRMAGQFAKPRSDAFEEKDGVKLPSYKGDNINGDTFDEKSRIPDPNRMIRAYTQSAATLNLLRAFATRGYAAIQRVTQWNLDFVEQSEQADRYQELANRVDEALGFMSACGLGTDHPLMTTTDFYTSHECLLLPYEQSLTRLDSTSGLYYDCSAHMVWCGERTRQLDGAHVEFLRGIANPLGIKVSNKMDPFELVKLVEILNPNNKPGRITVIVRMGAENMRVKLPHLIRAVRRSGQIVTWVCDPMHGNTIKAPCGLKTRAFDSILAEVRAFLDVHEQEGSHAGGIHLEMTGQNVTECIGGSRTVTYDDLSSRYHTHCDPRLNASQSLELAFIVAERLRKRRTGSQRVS
Protocol: as §1, §2

DHS2^WT [2] = molecular target: T3, DHS2^WT (Arabidopsis thaliana, UniProt Q00218); assay: DHS enzyme assay, recombinant DHS2^WT; type: biochemical; conditions: for inhibition at 1000 µM: effector at 1 mM; for effect on DHS2 activity (effector screening): FIG. 2D
T3 construct: without the predicted plastid transit peptide (amino acid residues; 49-525, 34-507, and 52-527, respectively); made in house; host or cells: E. coli Rosetta-2
T3 sequence (Q00218 34-507): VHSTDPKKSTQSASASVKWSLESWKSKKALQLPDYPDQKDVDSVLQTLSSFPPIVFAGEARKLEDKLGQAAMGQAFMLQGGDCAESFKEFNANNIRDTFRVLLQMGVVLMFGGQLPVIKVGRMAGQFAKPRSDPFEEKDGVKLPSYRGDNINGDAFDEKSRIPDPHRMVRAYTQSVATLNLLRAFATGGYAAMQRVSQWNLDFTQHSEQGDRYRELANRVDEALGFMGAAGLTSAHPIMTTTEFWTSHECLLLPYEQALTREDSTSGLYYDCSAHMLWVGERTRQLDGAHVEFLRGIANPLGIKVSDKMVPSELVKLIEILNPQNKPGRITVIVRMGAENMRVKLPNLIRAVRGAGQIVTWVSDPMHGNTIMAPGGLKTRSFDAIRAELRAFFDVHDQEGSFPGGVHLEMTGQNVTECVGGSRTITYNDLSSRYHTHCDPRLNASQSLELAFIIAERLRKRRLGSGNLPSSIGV
Protocol: as §1, §2

[3] = molecular target: T4, Arabidopsis thaliana DHS2 (SEQ ID NO:2) variant DHS2^A4 (sotaA4), G222S (Arabidopsis thaliana, UniProt Q00218, G222S); assay: biochemical; type: biochemical; conditions: up to 1 mM Tyr, Trp (FIG. 2C); shikimate, arogenate, prephenate at 1 mM (FIG. 21A)
T4 construct: without the predicted plastid transit peptide (amino acid residues; 49-525, 34-507, and 52-527, respectively); made in house; host or cells: E. coli
T4 sequence (Q00218 34-507 G222S): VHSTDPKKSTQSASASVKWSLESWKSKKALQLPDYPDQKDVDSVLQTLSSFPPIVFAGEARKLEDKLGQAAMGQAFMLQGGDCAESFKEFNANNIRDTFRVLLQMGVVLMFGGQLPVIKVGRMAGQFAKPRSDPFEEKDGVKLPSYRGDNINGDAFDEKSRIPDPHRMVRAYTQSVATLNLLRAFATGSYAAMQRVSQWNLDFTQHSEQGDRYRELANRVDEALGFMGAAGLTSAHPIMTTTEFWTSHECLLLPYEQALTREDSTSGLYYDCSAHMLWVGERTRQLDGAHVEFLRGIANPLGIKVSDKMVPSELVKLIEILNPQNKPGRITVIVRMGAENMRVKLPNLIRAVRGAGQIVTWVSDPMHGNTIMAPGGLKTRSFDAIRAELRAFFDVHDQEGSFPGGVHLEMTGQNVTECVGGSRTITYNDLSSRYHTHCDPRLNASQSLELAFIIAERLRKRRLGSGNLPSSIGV
Protocol: as §1, §2

[4] = molecular target: T5, Arabidopsis thaliana DHS2 (AtDHS2), wild type (DHS2^WT), SEQ ID NO:2 (Arabidopsis thaliana, UniProt Q00218); conditions: reference 9; cited from earlier work
T5 construct: without the predicted plastid transit peptide (amino acid residues; 49-525, 34-507, and 52-527, respectively); made in house; host or cells: E. coli Rosetta-2
T5 sequence (Q00218 34-507): as the sequence (Q00218 34-507) above

DHS2^A4 [5] = molecular target: T6, DHS2^A4 (Arabidopsis thaliana, UniProt Q00218, G222S); type: biochemical; conditions: effector up to 1 mM
T6 construct: without the predicted plastid transit peptide (amino acid residues; 49-525, 34-507, and 52-527, respectively); made in house; host or cells: E. coli
T6 sequence (Q00218 34-507 G222S): as the sequence (Q00218 34-507 G222S) above
Protocol: as §1, §2

[6] = molecular target: T7, Arabidopsis thaliana DHS1 (AtDHS1), wild type (DHS1^WT), SEQ ID NO:1 (Arabidopsis thaliana, UniProt P29976); assay: DHS enzyme assay with effector, Arabidopsis DHS1 WT; type: biochemical; conditions: effector screening (FIG. 2D)
T7 construct: without the predicted plastid transit peptide (amino acid residues; 49-525, 34-507, and 52-527, respectively); made in house; host or cells: E. coli Rosetta-2
T7 sequence (P29976 49-525): as the sequence (P29976 49-525) above
Protocol: as §1, with “To” for “To generate recombinant DHS proteins the pET28a vectors carrying the A. thaliana DHS1 (AtDHS1), AtDHS2, or AtDHS3 WT sequence without the predicted plastid transit peptide (amino acid residues; 49-525, 34-507, and 52-527, respectively) were expressed in E. coli Rosetta-2 cells and purified using Ni-affinity chromatography, exactly as was conducted previously (9). To”
(§3) The DHS enzyme assays were conducted using the colorimetric method that we recently described (9). Briefly, the enzyme solution (7.7 μl) containing 50 mM Hepes (pH 7.4) was preincubated with an effector molecule(s) at room temperature for 15 min. For assays using recombinant protein and enzyme fractions isolated from plant leaves, 0.01 to 0.1 μg and approximately 50 μg of proteins were used, respectively. After adding 0.5 μl of 0.1 M dithiothreitol, the samples were further incubated at room temperature for 15 min. During these incubations, the substrate solution containing 50 mM Hepes (pH 7.4), 2 mM MnCl2, 4 mM E4P, and 4 mM PEP at final concentration was preheated at 37° C. The enzyme reaction was started by adding 6.8 μl of the substrate solution, then incubated at 37° C. for 30 min, and terminated by adding 30 μl of 0.6 M trichloroacetic acid. After a brief centrifugation, 5 μl of 200 mM NaIO4 (sodium meta-periodate) in 9 N H3PO4 was added to oxidize the enzymatic product and to incubate at 25° C. for 20 min. To stop the oxidation reaction, 20 μl of 0.75 M NaAsO2 (sodium arsenite), which was dissolved in 0.5 M Na2SO4 and 0.05 M H2SO4, was added and immediately mixed. […]

DHS2^WT [7] = molecular target: T3, DHS2^WT; assay: Differential scanning fluorimetry (DSF) protein-ligand affinity analysis, DHS2^WT; type: binding; conditions: ligand at 1 mM
Protocol: (§4) To examine the impact of the sota mutations on the interaction between DHS and AAA effectors (FIG. 22), a differential scanning fluorimetry (DSF) analysis (48) was conducted using the recombinant DHS2^WT and DHS2^A4 proteins. […] The fluorescence signal was monitored during the stepwise increase in temperature (1° C. per minute from 25° C. to 95° C.). The Tm was calculated by nonlinear regression analysis using the Boltzmann sigmoidal equation (48).

DHS2^A4 [8] = molecular target: T6, DHS2^A4; assay: Differential scanning fluorimetry (DSF) protein-ligand affinity analysis, DHS2^A4; type: binding; conditions: ligand at 1 mM
Protocol: as §4

DHS1^WT [9] = molecular target: T1, DHS1^WT; conditions: AAAs, chorismate, caffeate: from Yokoyama et al., Plant Cell, 2021, cited from earlier work
[10] = molecular target: T8, Arabidopsis thaliana DHS1 (SEQ ID NO:1) variant DHS1^B4 (sotaB4), G244R (Arabidopsis thaliana, UniProt P29976, G244R); assay: DHS enzyme assay with effector, DHS1 sotaB4; type: biochemical
T8 construct: without the predicted plastid transit peptide (amino acid residues; 49-525, 34-507, and 52-527, respectively); made in house; host or cells: E. coli
T8 sequence (P29976 49-525 G244R): as the sequence (P29976 49-525 G244R) above
Protocol: as §1, §2

DHS3^WT = conditions: AAAs: from Yokoyama et al., Plant Cell, 2021; cited from earlier work
DHS3^G1 = assay: DHS enzyme assay, recombinant DHS3^G1; type: biochemical, Arabidopsis thaliana
Protocol: as §1, with “To” for “To generate recombinant DHS proteins the pET28a vectors carrying the A. thaliana DHS1 (AtDHS1), AtDHS2, or AtDHS3 WT sequence without the predicted plastid transit peptide (amino acid residues; 49-525, 34-507, and 52-527, respectively) were expressed in E. coli Rosetta-2 cells and purified using Ni-affinity chromatography, exactly as was conducted previously (9). To”
as §3

DHS2^A11 = molecular target: T9, DHS2^A11 (Arabidopsis thaliana, UniProt Q00218, A224T); assay: DHS enzyme assay, recombinant DHS2^A11; type: biochemical; conditions: effector up to 1 mM
T9 construct: without the predicted plastid transit peptide (amino acid residues; 49-525, 34-507, and 52-527, respectively); made in house; host or cells: E. coli
T9 sequence (Q00218 34-507 A224T): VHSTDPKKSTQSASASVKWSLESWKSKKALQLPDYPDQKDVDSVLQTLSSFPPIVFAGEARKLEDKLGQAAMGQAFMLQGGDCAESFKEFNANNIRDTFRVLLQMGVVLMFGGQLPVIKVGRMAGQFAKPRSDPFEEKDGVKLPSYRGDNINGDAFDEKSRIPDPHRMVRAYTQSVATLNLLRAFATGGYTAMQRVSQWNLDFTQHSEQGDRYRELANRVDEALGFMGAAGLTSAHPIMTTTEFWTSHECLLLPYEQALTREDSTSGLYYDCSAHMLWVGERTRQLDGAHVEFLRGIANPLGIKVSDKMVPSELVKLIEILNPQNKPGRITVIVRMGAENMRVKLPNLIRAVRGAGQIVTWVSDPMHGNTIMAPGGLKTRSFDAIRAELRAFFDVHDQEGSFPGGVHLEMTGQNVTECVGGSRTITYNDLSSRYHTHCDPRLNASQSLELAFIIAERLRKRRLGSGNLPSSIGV
Protocol: as §1, §2

DHS2^F1 = molecular target: T10, DHS2^F1 (Arabidopsis thaliana, UniProt Q00218, L136F); assay: DHS enzyme assay, recombinant DHS2^F1; type: biochemical; conditions: effector up to 1 mM
T10 construct: without the predicted plastid transit peptide (amino acid residues; 49-525, 34-507, and 52-527, respectively); made in house; host or cells: E. coli
T10 sequence (Q00218 34-507 L136F): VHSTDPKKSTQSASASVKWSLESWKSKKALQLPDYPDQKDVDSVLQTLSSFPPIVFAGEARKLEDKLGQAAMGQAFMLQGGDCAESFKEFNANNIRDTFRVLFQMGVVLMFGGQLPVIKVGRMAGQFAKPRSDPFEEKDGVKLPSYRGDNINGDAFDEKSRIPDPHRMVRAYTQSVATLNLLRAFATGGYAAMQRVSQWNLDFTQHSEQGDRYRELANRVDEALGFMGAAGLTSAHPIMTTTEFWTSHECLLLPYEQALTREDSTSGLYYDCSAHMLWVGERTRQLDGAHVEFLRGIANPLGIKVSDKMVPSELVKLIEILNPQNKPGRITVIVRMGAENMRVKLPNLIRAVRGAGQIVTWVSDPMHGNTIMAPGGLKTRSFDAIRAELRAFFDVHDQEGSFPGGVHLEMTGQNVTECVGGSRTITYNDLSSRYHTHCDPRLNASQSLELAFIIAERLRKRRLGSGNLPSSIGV
Protocol: as §1, §2

[11] = molecular target: T4, Arabidopsis thaliana DHS2 (SEQ ID NO:2) variant DHS2^A4 (sotaA4), G222S; assay: Differential scanning fluorimetry protein-ligand affinity analysis, DHS2 sotaA4; type: binding; conditions: ligand at 1 mM
Protocol: (A) Simplified pathway map of AAAs and AAA-derived metabolites used in the effector screening. […] Data are means±SEM (n=3 independent assays).
as §4

DHS3^H1 = assay: DHS enzyme assay, recombinant DHS3^H1; type: biochemical, Arabidopsis thaliana
Protocol: as §1, with “To” for “To generate recombinant DHS proteins the pET28a vectors carrying the A. thaliana DHS1 (AtDHS1), AtDHS2, or AtDHS3 WT sequence without the predicted plastid transit peptide (amino acid residues; 49-525, 34-507, and 52-527, respectively) were expressed in E. coli Rosetta-2 cells and purified using Ni-affinity chromatography, exactly as was conducted previously (9). To”
as §3

O=C(O)CCc1c[nH]c2ccccc12 [Indole-3-propionic acid]
IC50 (DHS1^WT [1]): 2060 µM | IC50 (DHS1^B4): 2000 µM

NCCc1ccc(O)cc1 [tyramine]
inhibition at 1000 µM (DHS2^WT [2]): ~30%

O=C(O)C(=O)CC1(C(=O)O)C=CC(O)C=C1 (stereo not drawn) [prephenate]
inhibition of DHS2^A4 [3]: still inhibited | inhibition of DHS2 [4]: slightly inhibit DHS2 | inhibition of DHS2^A4 activity (DHS2^A4 [5]): still inhibited

NCCc1c[nH]c2ccccc12 [tryptamine]
effect on DHS1 activity (effector screening) (DHS1^WT [1]): did not affect the activity | effect on DHS2 activity (effector screening) (DHS2^WT [2]): slight reduction | inhibition of DHS1^WT activity [6]: did not affect the activity of DHS1

OCCc1ccc(O)cc1 [Tyrosol]
inhibition at 1000 µM (DHS2^WT [2]): ~30%

N[C@@H](Cc1ccccc1)C(=O)O [Phe, phenylalanine]
effect on melting temperature (Tm) of DHS2^WT (DHS2^WT [7]): no impact on the Tm | effect on melting temperature (Tm) / binding of DHS2^A4 (DHS2^A4 [8]): no impact on the Tm

c1ccc2[nH]ccc2c1 [indole]
inhibition of DHS1^WT activity [6]: did not affect the activity of DHS1

O=C(O)/C=C/c1ccc(O)c(O)c1 [Caffeate]
IC50 (DHS1^WT [9]; read-out: IC50 of effector molecule on DHS1^WT): 108 µM | IC50 [10]: 65.2 µM | inhibition of DHS1^B4 activity (DHS1^B4): still strongly inhibited | IC50 (DHS1^B4; read-out: IC50 of effector molecule on DHS1^B4): 65.2 µM

N[C@@H](CC1(C(=O)O)C=CC(O)C=C1)C(=O)O (stereo partly drawn) [arogenate]
inhibition of DHS2^A4 [3]: still inhibited | inhibition of DHS2 [4]: slightly inhibit DHS2 | inhibition of DHS2^A4 activity (DHS2^A4 [5]): still inhibited

O=C(O)C1=C[C@@H](O)[C@@H](O)[C@H](O)C1 [shikimate]
inhibition of DHS2^A4 [3]: still inhibited | inhibition of DHS2 [4]: slightly inhibit DHS2 | inhibition of DHS2^A4 activity (DHS2^A4 [5]): still inhibited

N[C@@H](Cc1ccc(O)cc1)C(=O)O [Tyr, tyrosine]
IC50 of effector molecule on DHS1^WT (DHS1^WT [9]): Not inhibited | IC50 of effector molecule on DHS3^WT (DHS3^WT): Not inhibited | IC50 of effector molecule on DHS3^G1 (DHS3^G1): Not inhibited | inhibition of DHS2^A11 activity (DHS2^A11): not inhibited | inhibition of DHS2 [4]: inhibit Arabidopsis DHS2 | inhibition of DHS2^F1 activity (DHS2^F1): not inhibited | binding (DSF) [11]: still binds Tyr and Trp | IC50 of effector molecule on DHS3^H1 (DHS3^H1): Not inhibited | IC50 of effector molecule on DHS1^B4 (DHS1^B4; recombinant enzyme): Not inhibited

Nc1ccccc1C(=O)[O-].[Na+] [Anthranilate]
effect on DHS1 activity (effector screening) (DHS1^WT [1]): did not affect the activity | effect on DHS2 activity (effector screening) (DHS2^WT [2]): slight reduction

O=C(O)Cc1c[nH]c2ccccc12 [IAA, indole-3-acetate]
effect on DHS1 activity (effector screening) (DHS1^WT [1]): inhibit | effect on DHS2 activity (effector screening) (DHS2^WT [2]): inhibit
